# Results: patent publication US20160310581A1, “ADAM10 INHIBITION TO TREAT FRAGILE X SYNDROME” (VIB VZW, priority 2013, published 2016)
# “Also recorded” adds a separate entry of the source.
# Columns and labels:
# [1] = system: group I metabotropic glutamate receptors (mGluR); conditions: DHPG 100 μM, 5 min
# Protocol: Neuronal culture preparation and stimulation. Mouse primary cortical neurons (E15) were prepared as described (Ferrari et al., 2007). Neurons were treated with the mGluRI agonist DHPG (100 uM) for 5 min as described in Napoli et al., 2008.
# Immunoprecipitation and RT-PCR. Mouse brains were lysed and the supernatant was used for the IP according to standardized protocol (Napoli et al., 2008). FMRP antibody or purified rabbit IgGs were incubated with the Protein A Sepharose beads and with brain extract or cells for 1 hr at 4° C. After incubation with the extracts RNA was extracted (Phenol/Chloroform) and precipitated in 2.5 v ethanol. First-strand synthesis was achieved using p(dN)6 and 100 U of Superscript III (Invitrogen) and PCR was performed with GoTaq (Promega), according to the manufacturer's instructions. We used specific oligonucleotides to amplify αCaMKII, App, Adam10, Adam9, Adam17, Cyp46, BC200, D2DR. When RTqPCR was used to quantify immunoprecipitated mRNA, the relative mRNA level in the immunoprecipitation samples was calculated as follows: 2^−[DCp(Ip)−DCp(IgG)]=2^−DDCp, where DCp equals Cp(IP or IgG)-Cp(Input).
# Western Blot. Standard methodologies were used. 5-20 μg of total lysate or synaptoneurosomes were separated by SDS-PAGE electrophoresis and blotted on a PVDF membrane (Millipore). […] Further quantification was performed upon Coomassie staining of the membranes.
# mGluR-dependent LTD = assay: DHPG-induced mGluR-LTD, fEPSP recording in hippocampal slices; design: species or system mouse; conditions: for LTD of fEPSPs, % of baseline: 240 min; for effect on enhanced mGluR-LTD: Fmr1 KO mice, slices 24 h after peptide treatment; for effect on the ability of DHPG to elicit LTD: WT slices/mice, compared with untreated control
# Protocol: Electrophysiology. Animals were euthanized by decapitation, and the right hippocampus was rapidly dissected out into ice-cold (4° C.) artificial cerebrospinal fluid (ACSF) and saturated with carbogen (95% O2/5% CO2). The ACSF consisted of (in mM): 124 NaCl, 4.9 KCl, 24.6 NaHCO3, 1.20 KH2PO4, 2.0 CaCl2, 2.0 MgCl2, and 10.0 glucose, pH 7.4. Transverse slices (400 μm thick) were prepared from the dorsal area of the hippocampus with a tissue chopper and were placed into a submerged-type chamber; samples were kept at 33° C. and continuously perfused with carbogen saturated ACSF at a flow-rate of 2.2 ml/min. After 90 min of incubation, one slice was arbitrarily selected, and a tungsten electrode was placed in the CA1 stratum radiatum. Field excitatory postsynaptic potentials (fEPSPs) were recorded by placing a glass electrode (filled with ACSF, 3-7 MΩ) in the stratum radiatum opposite the stimulating electrode. The time course of the field EPSP was measured as the descending slope function for all sets of experiments. After input/output curves had been established, the stimulation strength was adjusted to elicit a fEPSP-slope of 35% of the maximum and kept constant throughout the experiment. During the baseline recording, 3 single stimuli (0.1 ms pulse width; 10 s interval) were measured every 5 min. The mGluR mediated LTD was induced by a bath application of 30 μM S-DHPG [(S)-3-5-dihydroxy-phenyl glycine; Abcam Chemicals Ltd., Bristol UK] for 15 min (Tambuyzer et al., 2013). During the chemical induction, evoked responses were monitored at 1, 4, 7 and 10 min and then every 5 min until the end of the experiment. All studies were conducted with the experimenter blinded to the treatment regime.
# [2] = Marcello et al., 2007; cited from earlier work
# Fmr1 KO mice = assay: Behavioral tests: open field (hyperactivity) and T-maze (working memory); type: in vivo, mouse; conditions: P24-25
# Protocol: Behavioral tests. All behavioral experiments were performed with P24-25 male mice and blind to the genotype and treatment. We used a minimum of 9 animals per genotype and treatment. Mice were habituated to their new environment for 3 days and tests were conducted during the light phase of their activity cycle. Health and weight of the mice were recorded routinely during the whole period of testing.
# Open-field exploration was tested in 50 cm×50 cm×30 cm (w×l×h) square arena illuminated by indirect light. Animals were dark adapted for 30 min and placed in the arena for 10 min each. Movements of the mice in the arena were video-tracked for 10 min and the images were transmitted to a PC equipped with ANY-maze™ Video Tracking System software (Stoelting Co., IL, USA).
# Spatial working memory was evaluated in a delayed nonmatching alternation test using an elevated open T-shaped maze made of dark grey plastic. The maze was composed of three 50 cm×7 cm×4 cm (l×w×h) arms elevated 25 cm above the ground. Behavior was registered with a PC-interfaced camera and analyzed with ANY-maze™ Video Tracking System software (Stoelting Co., IL, USA). The mouse was subjected to two trials. During the exploration trial, one of the horizontal T-maze arms (novel arm) was blocked with a 10 cm high door and the mouse was placed into the start arm to explore freely the start and familiar arms for 5 min. […]
# [3] = system: dendritic spines of Fmr1 KO mice; assay: Morphological analysis of dendritic spines in vivo (diolistic DiI labelling); design: species or system mouse; conditions: 3 nmol/g i.p., 24 h, hippocampal sections, vs TAT-Ala Fmr1 KO mice
# Protocol: Morphological analysis. Wild type and Fmr1 KO mice received an intraperitoneal injection with either TAT-Pro or TAT-Ala peptides (3 nmol/g; 14-d-old mice; 8 mice/group). After 24 h, the mice were deeply anaesthetised with an intraperitoneal injection 0.54 mg/g Avertin and then perfused with ice-cold 4% PFA in 0.1M phosphate buffer (PB; 61.2 mM Na2HPO4, 23.2 mM NaH2PO4.H20, pH 7.4). Brains were removed and sectioned in 200 μm thick transverse slices containing both cortex and hippocampus using a Vibratome (Vibratome). Slices were equilibrated in PBS at 4° C. before applying the Dil-coated particles using a diolistic gene-gun system (Bio-Rad laboratories, Italy). 15 min after application, slices were fixed with 4% PFA in 0.1M PB (2 hours) and kept in PB O/N before mounting. Images of Dil-labelled neurons in the hippocampus and cortex were acquired using Zeiss Confocal LSM510 Meta system with 63× objective and a sequential acquisition setting at 1024×1024 pixels resolution. For each image three to four 0.5 μm sections were acquired and z-projection was obtained. Morphological analysis of dendritic spines was performed using freely available ImageJ 1.42q software (Wayne Rasband National Institutes of Health, USA), and spine length, head width and neck width were measured.
# ADAM10 [4] = assay: sAPP release into medium of cultured cortical neurons (western blot); type: cell-based, mouse; conditions: Fmr1 KO cortical neurons
# Protocol: Neuronal culture preparation and stimulation.
# (§1) Western Blot. Standard methodologies were used. […] Membranes were incubated using specific antibodies. […] 5 (Molecular Dynamics).
# Peptide treatment. […] P20 mice were given intraperitoneal injections of the two peptides (3 nmol/g) and fractionation performed after 24 hrs. Experiment was conducted on WT and KO littermate mice.
# ADAM10 [5] = assay: sAPPα levels in brain after intraperitoneal peptide injection (brain fractionation, western blot); type: in vivo, mouse; conditions: Fmr1 KO mice; single i.p. injection 3 nmol/g, 24 h; vs TAT-Ala treated Fmr1 KO mice
# Protocol: as §1
# Brain fractionation. Half brain was homogenized in STE buffer (Sucrose 0.32 M, 5 mMTris HCl pH 7.4, 1 mM EDTA, PSMF 0.1 mM, 10 μl ml^−1 Protease inhibitor cocktail (PIC, Sigma). The homogenized tissue was centrifuged at 800 g for 10 min to pull down nuclei. The resulting supernatant was then centrifuged at 55000 rpm 1 h. The supernatant (S1) was collected while the pellet was dissolved in 1% Triton STE Buffer and centrifuged at 55.000 rpm (TLX) for 1 hr. The supernatant is collected (S2) and the final pellet homogenized in SDS Laemmli buffer 1× (Triton-insoluble fraction, P1).
# Peptide treatment. Specific (TAT-PRO) or control (TAT-ALA) peptides (10 μM) were added to the media of DIV14 WT and KO cultured neuron and the release of sAPP was monitored by WB after 24 h. P20 mice were given intraperitoneal injections of the two peptides (3 nmol/g) and fractionation performed after 24 hrs. Experiment was conducted on WT and KO littermate mice.
# ADAM10/SAP97 interaction = ADAM10/SAP97 interaction (Mus musculus, UniProt Q811D0); conditions: Marcello et al., 2007; cited from earlier work
# ADAM10/SAP97 interaction, sequence (Q811D0 whole entry): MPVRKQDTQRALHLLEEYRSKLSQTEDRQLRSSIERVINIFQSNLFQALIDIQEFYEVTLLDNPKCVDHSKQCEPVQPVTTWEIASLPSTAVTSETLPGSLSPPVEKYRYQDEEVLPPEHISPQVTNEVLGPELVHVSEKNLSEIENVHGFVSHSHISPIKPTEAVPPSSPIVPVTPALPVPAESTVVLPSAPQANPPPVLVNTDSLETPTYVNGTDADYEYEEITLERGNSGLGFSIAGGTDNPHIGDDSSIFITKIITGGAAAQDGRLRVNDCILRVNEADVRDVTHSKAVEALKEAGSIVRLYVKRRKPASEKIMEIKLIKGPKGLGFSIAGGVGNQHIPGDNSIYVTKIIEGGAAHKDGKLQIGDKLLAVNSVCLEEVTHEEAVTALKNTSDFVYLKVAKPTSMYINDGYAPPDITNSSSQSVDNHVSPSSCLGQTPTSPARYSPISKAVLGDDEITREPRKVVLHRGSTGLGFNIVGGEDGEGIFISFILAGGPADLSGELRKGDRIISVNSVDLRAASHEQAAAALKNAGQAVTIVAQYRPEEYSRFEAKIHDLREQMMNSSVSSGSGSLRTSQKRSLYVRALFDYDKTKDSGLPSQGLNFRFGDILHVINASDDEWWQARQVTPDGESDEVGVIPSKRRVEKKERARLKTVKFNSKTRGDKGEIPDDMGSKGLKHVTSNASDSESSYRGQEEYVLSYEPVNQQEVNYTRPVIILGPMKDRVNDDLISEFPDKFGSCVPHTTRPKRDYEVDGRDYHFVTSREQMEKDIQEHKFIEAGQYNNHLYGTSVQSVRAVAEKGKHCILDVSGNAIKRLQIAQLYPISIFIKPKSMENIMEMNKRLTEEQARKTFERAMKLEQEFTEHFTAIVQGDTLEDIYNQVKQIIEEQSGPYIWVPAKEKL
molecule,measurement,setting,value
"N[C@H](C(=O)O)c1cc(O)cc(O)c1 [DHPG, (S)-3-5-dihydroxy-phenyl glycine]",expression of APP,[1]; primary cortical neurons DIV14,induced an increase
same,amount of App mRNA associated with FMRP,[1]; primary cortical neurons,reduced by threefold
same,"LTD of fEPSPs, % of baseline","mGluR-dependent LTD; Fmr1 KO mice slices, DHPG 30 μM, 15 min",28±3%
same,"LTD of fEPSPs, % of baseline","mGluR-dependent LTD; WT slices, DHPG bath application 30 μM, 15 min",53±9%
TAT-Pro: Cell-permeable anti-ADAM10 peptide YGRKKRRQRRRPKLPPPKPLPGTLKRRRPPQP (SEQ ID NO:1): 11 aa Tat transporter sequence linked to 21 aa ADAM10 proline rich domains (Tat-Pro ADAM10 709-729 peptide),blood-brain barrier crossing,[2],crosses the blood-brain barrier
same,"behavioural deficits (open field hyperactivity, T-maze working memory)",Fmr1 KO mice,partially ameliorates the behavioural deficits
same,effect on enhanced mGluR-LTD,"mGluR-dependent LTD; DHPG 30 μM, 15 min, listed as Tat-Pro",prevents mGluR-LTD
same,effect on enhanced mGluR-LTD,"mGluR-dependent LTD; DHPG 30 μM, 15 min, listed as Tat-Pro ADAM10^709-729",sufficient to prevent the enhanced LTD
same,fEPSP after DHPG-induced LTD (% of baseline),"mGluR-dependent LTD; WT slices, 24 h after peptide treatment, DHPG 30 μM, 15 min",65±8%
same,effect on the ability of DHPG to elicit LTD,mGluR-dependent LTD; listed as Tat-Pro,does not impact LTD
same,effect on the ability of DHPG to elicit LTD,mGluR-dependent LTD; listed as Tat-Pro ADAM10^709-729,no detectable effect
same,spines density,[3],decreases spines density
same,spines length,[3],significantly increases
same,spines width,[3],significantly increases
same,sAPP release in the medium,"ADAM10 [4]; peptide 10 μM, 1 h, compared to TAT-Ala exposed neurons",significantly decreases sAPP release; also recorded: reduces sAPP release
same,sAPPα levels in brain,ADAM10 [5],significant reduction of sAPPα levels
same,ADAM10/SAP97 interaction,ADAM10/SAP97 interaction,interferes with ADAM10/SAP97 interaction
"TIMP-1: tissue inhibitor of metalloproteinase-1, an inhibitor of metalloproteinases",sAPP release in the medium,ADAM10 [4]; TIMP-1 15 nM for 4 h,significantly reduces sAPP release
